# From patent publication US7361633B2, “Screening method and anti-tumor drug candidate obtained therefrom” (Ardana Bioscience Limited, priority 2002, dated 2008)
# “Also recorded” adds a separate entry of the source.
# Key:
# ERK1/2 = ERK1/2 phosphorylation immunoblot in BPH-1 cells; assay type: cell-based, human; details: for extent of ERK1/2 activation: FIG. 5 panel c
# Source text: The panel depicts a representative anti-phospho-ERK1/2 w-c lysate immunoblot of stimulated BPH-1 cell extracts. […] Each bar of the histogram represents the mean±s.e. mean of three to four experimental replicates. […] Panel c) depicts the extent of ERK1/2 activation in BPH-1 cells induced by stimulation with GnRH I, II, Ant 135-25 and Ant 135-18. […] Each bar of the histogram represents the mean± s.e. mean of three to four experimental replicates.
# [1] = tested on: human JEG-3 choriocarcinoma cells; assay: Anti-proliferative effect on JEG-3 cells, viable cell count after 5 days; assay type: cell-based; details: 5 days continuous treatment, trypan blue exclusion
# Experimental: (§1) Low cell density JEG-3 cell subcultures were treated for 5 days continuously with the indicated doses of GnRH I (a), GnRH II (b), antagonist 135-18 (c) or antagonist 135-25 (d) added directly to Dulbecco's modified Eagles medium supplemented with 10% FCS, glutamine and penicillin/streptomycin. Ligands were replenished every 24 h. At the end of the stimulation period cells were removed from the growth plates with trypsin and mixed with trypan blue dye (enters non-viable cells). Only viable cells were therefore counted using a haemocytometer in quadruplicate for each ligand dose. The bars in each histogram represent the mean±s.e. mean of n=4 experiments.
# (§2) Each cell type was plated at an initial minimal confluency (10-20%) to allow for 5 days of normal continual cell growth that would not result in 100% cell confluency by day 5. Each ligand was incubated, in triplicate for every experimental concentration, with the cell monolayers for five days with replacement of the ligand every 12 h. At the end of the stimulation period the number of viable cells was estimated by their capacity to prevent uptake of Trypan Blue stain.
# [2] = tested on: human benign prostate hyperplastic (BPH-1) cells; assay: Anti-proliferative effect on BPH-1 cells, viable cell count after 5 days; assay type: cell-based; details: 5 days continuous treatment, trypan blue exclusion
# Experimental: as §1, with “density BPH-1” for “density JEG-3”, “(b), Ant” for “(b), antagonist”, “or Ant” for “or antagonist”, “to RPMI 1640” for “to Dulbecco's modified Eagles”, “removed form” for “removed from”, “plates by” for “plates with”
# as §2
# Employing an identical growth and stimulation methodology to that described in the previous paragraph and in FIG. 1 we exposed the hyperplastic cell line, BPH-1, to the same panel of GnRH ligands and antagonistic analogues (FIG. 2). Reminiscent of FIG. 1 both endogenous GnRH agonists exert a similar mode of action with respect to their dose-dependent inhibition of BPH-1 cell growth over the five day stimulation period.
# [3] = tested on: HEK293 cells stably expressing the Type I GnRHR (SCL60); assay: Anti-proliferative effect on SCL60 cells, viable cell count after 5 days; assay type: cell-based, human; details: 5 days continuous treatment, trypan blue exclusion
# Experimental: An identical methodology of measuring cell growth was employed as in FIG. 1.
# as §2
# We further investigated the nature of the ligand-receptor specificity of the anti-proliferative effects of GnRH receptor systems by studying our ligand panel effects upon a model cell background, i.e. SCL60 HEK293 cells stably expressing the rat Type I GnRHR. […] We attribute this greater effect of the GnRHR ligands upon the SCL60 cells to the much greater level of receptor expression in the SCL60 cells.
# Type I GnRH receptor = target: T1, Type I GnRH receptor (Rattus norvegicus, UniProt P30969); assay: Inositol phosphate accumulation in SCL60 (HEK293) cells; assay type: cell-based; details: GnRH I 10 nM
# T1 construct: expressed in transfected cells
# T1 sequence (P30969 1-327): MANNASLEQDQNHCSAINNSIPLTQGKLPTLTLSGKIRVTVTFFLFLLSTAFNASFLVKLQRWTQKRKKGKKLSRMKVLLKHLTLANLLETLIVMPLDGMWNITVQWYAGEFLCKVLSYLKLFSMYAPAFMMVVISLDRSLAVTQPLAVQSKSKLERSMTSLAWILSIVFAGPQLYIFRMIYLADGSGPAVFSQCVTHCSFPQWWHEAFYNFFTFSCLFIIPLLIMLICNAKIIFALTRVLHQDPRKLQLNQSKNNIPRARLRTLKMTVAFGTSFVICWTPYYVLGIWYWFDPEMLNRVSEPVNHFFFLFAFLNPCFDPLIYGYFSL
# Experimental: The histograms in panels a and b represent inositol phosphate accumulation data from HEK293 cells stably expressing the Type I GnRH receptor only (SCL60). […] In panels c and d, the liberated inositol phosphates generated were measured in the proto-gonadotrope cells (αT4) stably expressing the marmoset Type II GnRH receptor (designated αT4-II).
# The ability of the four major agents under study at activating ectopically expressed Type I or Type II GnRHR were tested (FIG. 12). The classical signal transduction cascade activated by GnRHR stimulation is the Gαq-PLC-β cascade. Both Type I and II receptor can stimulate the Gαq-PLC type-G-protein and activate PLC-β which cleaves phosphatidylinositol bisphosphate (PIP2) into inositol trisphosphate (IP3), other lower inositol phosphates (IPn) and diacylglycerol (DAG). The major function of IP3 is to elevate intracellular Ca^2+ while DAG causes the activation of specific PKC (protein kinase C) isoforms.
# Panels a and b of FIG. 12 depict the generation of free cytoplasmic ^3H-myo-inositols on the plasma membranes of HEK293 cells expressing the Type I GnRHR and of αT4 gonadotropes expressing the marmoset Type II GnRHR. Prior to agonist stimulation the respective cells were incubated in inositol-free growth media supplemented with 1 μCi/ml ^3H-myoinositol for 48 h. G protein coupled receptor (GPCR)-induced activation of PLC-β results in the cleavage of PIP2 (incorporating tritium ^3H) into free lower inositol phosphates (IPns).
agonistic activity: liberated inositol phosphates at Type I GnRH receptor (Type I GnRH receptor; listed as 135-25),Compound,"effect on GnRH-mediated ERK activation (ERK1/2; 1 μM SB203580, data not shown)",anti-proliferative effect (viable cell number) [1],anti-proliferative effect (viable cell number) [2],extent of ERK1/2 activation (ERK1/2),anti-proliferative effect (viable cell number) [3],anti-proliferative effect (viable cell number) ([3]; listed as Ant135-25),agonistic activity: liberated inositol phosphates at Type I GnRH receptor (Type I GnRH receptor),agonistic activity: liberated inositol phosphates at Type I GnRH receptor (Type I GnRH receptor; listed as Ant135-25),agonistic activity: liberated inositol phosphates at Type I GnRH receptor (Type I GnRH receptor; listed as antagonist 135-25),anti-proliferative effect (viable cell number) ([1]; listed as Ant135-18),anti-proliferative effect (viable cell number) ([2]; listed as Ant135-18),extent of ERK1/2 activation (ERK1/2; listed as Ant135-18),anti-proliferative effect (viable cell number) ([3]; listed as Ant135-18),agonistic activity: liberated inositol phosphates at Type I GnRH receptor (Type I GnRH receptor; listed as 135-18),agonistic activity: liberated inositol phosphates at Type I GnRH receptor (Type I GnRH receptor; listed as Ant135-18),"ERK1/2 activation, dose dependence (ERK1/2; FIG. 5 panel a)"
–,C[S+]([O-])c1ccc(-c2nc(-c3ccncc3)c(-c3ccc(F)cc3)[nH]2)cc1 (stereo not drawn) [SB203580],no significant effect,–,–,–,–,–,–,–,–,–,–,–,–,–,–,–
no IPn-generating capacity,Ac-D-Nal(2)-D-4-ClPhe-D-Pal-Ser-1-MePal-D-IsopropylLys-Leu-IsopropylLys-Pro-D-AlaNH2 [Ant 135-25],–,clear dose-response relationships for the inhibition of cellular growth,anti-proliferative effect upon BPH-1 cells with a similar potency to that of GnRH I,A similar pattern to JEG-3 of ligand activation,greater anti-proliferative efficacy,nearly an as efficacious action as either GnRH I or GnRH II,no classical agonistic activity is demonstrated,demonstrate no partial agonistic activity,failed to generate significant free inositol phosphate,–,–,–,–,–,–,–
–,Ac-D-Nal(2)-D-4-ClPhe-D-Pal-Ser-Ile-D-IsopropylLys-Leu-IsopropylLys-Pro-D -AlaNH2 [Ant 135-18],–,"much lower potency and efficacy compared to 135-25, GnRH I and II",much lower potency and efficacy compared to Ant 135-25 and GnRH I,A similar pattern to JEG-3 of ligand activation,low efficacy compared to the other ligands,–,little classical agonistic capacity,–,–,"failed to demonstrate an anti-proliferative effect of a similar magnitude to that generated by GnRH I, GnRH II or Ant135-25",low ant-proliferative potency,considerably less,relatively ineffective at inhibiting the SCL60 cell proliferation,no activation of the PLC-β signal at the Type I receptor evident,demonstrate no partial agonistic activity,–
–,"GnRH I: Gonadotropin-Releasing Hormone, a decapeptide; the original form of GnRH, re-named GnRH I",–,potent and dose-dependent anti-proliferative effect; also recorded: clear dose-response relationships for the inhibition of cellular growth,potent and dose-dependent anti-proliferative effect; also recorded: more potent that GnRH II in its capacity to arrest cell growth,A similar pattern to JEG-3 of ligand activation,greater anti-proliferative efficacy; also recorded: dramatic reduction in the cells growth rate and significant loss of total cell number,–,yields an increase in free tritiated inositol phosphates; also recorded: significant increase in liberated inositol phosphates,–,–,–,–,–,–,–,–,strong and dose-dependent activation of ERK1/2
